This is an account of results in US4348264A, “Photocatalyzed process for producing carbapenams and carbapen-2-ems” (Pfizer Inc., priority 1981, dated 1982).

Common to all, as to type: cell-based
One test has as its system Vibrio percolans. The test is described as follows: Standard disc-plate method, zone of inhibition. To be noted: for zone of inhibition at 25 µg/disc: 25 microgram discs. From the text: (§1) The utility of the various compounds as intermediates to other compounds of the present invention will be evident from the preceding discussion. The antibacterial activity of these compounds, reflecting their utility in the control of susceptible bacterial infections in man and animals, as animal feed additives for promotion of growth, or as preservatives of materials biodegraded by susceptible microorganisms, is best measured by the standard disc-plate method routinely employed in clinical laboratories for determining the sensitivity of microorganisms to antimicrobial substances. Sensitivity discs are prepared by dipping a standard 6.25 mm. paper disc into a solution of the compound to be tested (conc. 1 mg./ml.) in a volatile solvent (e.g. methylene chloride) and the disc dried, producing discs containing approximately 25 microg. of the compound. The discs are placed on the surface of agar growth media seeded with the test microorganism, previously plated into Petri dishes. The plates are incubated overnight at 35°-37° C. Activity of the test compound is reflected by a zone of inhibition of bacterial growth around the test disc. The diameter of this zone provides a quantitative measure of the activity of the antibacterial substance. The activity of various compounds of the present invention is summarized in Table I. For comparison, results obtained with 10 microg. discs of ampicillin and penicillin G are included as positive controls.

For a further test, the system named is Micrococcus luteus. The test is described as follows: Standard disc-plate method, zone of inhibition.
Source text: as §1

The next test deals with Bacillus subtilis. The test is described as follows: Standard disc-plate method, zone of inhibition.
Source text: as §1

Test [1] concerns Escherichia coli. The test is described as follows: Standard disc-plate method, zone of inhibition. The following applies: for zone of inhibition at 25 µg/disc: Escherichia coli.
Source text: as §1

For test [2], the system named is Staphylococcus aureus. Nature of the test: Standard disc-plate method, zone of inhibition.
Source text: as §1

In test [3] the test system is Staphylococcus aureus (Antibiotic Resistant). The test is described as follows: Standard disc-plate method, zone of inhibition. To be noted: for zone of inhibition at 25 µg/disc: 25 microgram discs.
Source text: as §1

Another test concerns Pseudomonas aeruginosa. Nature of the test: Serial dilution-tube method, MIC. The following applies: brain heart infusion broth; for MIC: Pseudomonas aeruginosa, read-out: Minimum Inhibitory Concentration.
In another test the test system is Klebsiella pneumoniae. The test is described as follows: Serial dilution-tube method, MIC. The following applies: brain heart infusion broth; for MIC: Klebsiella pneumoniae, read-out: Minimum Inhibitory Concentration.
Test [4] deals with Staphylococcus aureus (Antibiotic Resistant). The test is described as follows: Serial dilution-tube method, MIC. The following applies: brain heart infusion broth; for MIC: Staphylococcus aureus, read-out: Minimum Inhibitory Concentration.
For test [5], the system named is Escherichia coli (Antibiotic Resistant). Nature of the test: Serial dilution-tube method, MIC. To be noted: brain heart infusion broth; for MIC: Escherichia coli, read-out: Minimum Inhibitory Concentration.
In a further test the test system is Proteus morgani. The test is described as follows: Serial dilution-tube method, MIC. The following applies: brain heart infusion broth; for MIC: read-out: Minimum Inhibitory Concentration.
Test [6] has as its system Staphylococcus aureus. Nature of the test: Serial dilution-tube method, MIC. The following applies: brain heart infusion broth; for MIC: Staphylococcus aureus, read-out: Minimum Inhibitory Concentration.
The subject of a further test is Enterobacter cloacae. Nature of the test: Serial dilution-tube method, MIC. To be noted: brain heart infusion broth; for MIC: Enterobacter cloacae, read-out: Minimum Inhibitory Concentration.
The test system of test [7] is Escherichia coli. The test is described as follows: Serial dilution-tube method, MIC. To be noted: brain heart infusion broth; for MIC: Escherichia coli, read-out: Minimum Inhibitory Concentration.
The test system of the next test is Serratia marcescens. The test is described as follows: Serial dilution-tube method, MIC. To be noted: brain heart infusion broth; for MIC: Serratia marcescens, read-out: Minimum Inhibitory Concentration.
Another test deals with Citrobacter diversus. The test is described as follows: Serial dilution-tube method, MIC. The following applies: Citrobacter koseri; brain heart infusion broth; read-out: Minimum Inhibitory Concentration.
Where [8] appears, read: Micrococcus luteus, 25 microgram discs.
Where [9] appears, read: Bacillus subtilis, 25 microgram discs.
[10] abbreviates: Staphylococcus aureus, 25 microgram discs.
[11] abbreviates: Staphylococcus aureus, antibiotic resistant.
The mark [12] stands for this setting: positive control, 10 microgram discs.

Regarding `CC(=O)OC(C)C1C(=O)N2C(C(=O)O)=C(C)C(OC(C)=O)C12` (stereo not drawn) [AET H H CH3 H OAc I, Sodium 6-alpha-(1-Acetoxyethyl)-1-acetoxy-2-methylcarbapen-2-em-3-carboxylate], the zone of inhibition (usually the size of the clear area around the sample on an inoculated plate) at 25 µg/disc with Vibrio percolans (Comamonas terrigena) is 10 mm; in the test with Micrococcus luteus (setting [8]), 26 mm; in the test on Bacillus subtilis (setting [9]), 25 mm; with Escherichia coli [1] (25 microgram discs) it was 0 mm; with Staphylococcus aureus [2] (setting [10]), 21 mm.
With `CC(=O)OC(C)C1C(=O)N2C(C(=O)O)=C(C)C(O)C12` (stereo not drawn) [AET H H CH3 H OH I, Sodium 6-alpha-(1-Acetoxyethyl)-1-hydroxy-2-methylcarbapen-2-em-3-carboxylate], the zone of inhibition at 25 µg/disc in the test with Vibrio percolans (Comamonas terrigena) was found to be 16 mm; in the test with Micrococcus luteus (setting [8]), 20 mm; with Bacillus subtilis (setting [9]), 15 mm; in the test with Escherichia coli [1] (25 microgram discs), 0 mm; in the test with Staphylococcus aureus [2] (setting [10]), 20 mm.
On to `CCN1CCN(C(=O)N[C@@H](C(=O)NC2C(=O)N3C(C(=O)OCOC(=O)C(C)(C)C)=C(C)C(=O)C23)c2ccccc2)C(=O)C1=O` (stereo partly shown) [EPA H POM CH3 O II, Pivaloyloxymethyl 2-Methyl-1-oxo-6-[2-phenyl-2-(4-ethyl-2,3-dioxopiperazine-1-carboxamido)acetamido]carbapen-2-em-3-carboxylate], for which the zone of inhibition at 25 µg/disc is 20 mm with Vibrio percolans (Comamonas terrigena); 0 mm with Micrococcus luteus (setting [8]); 0 mm in the test with Bacillus subtilis (setting [9]); 0 mm in the test with Escherichia coli [1] (25 microgram discs); 0 mm in [3] (setting [11]); 0 mm in the test on Staphylococcus aureus [2] (setting [10]).
As for `CC(=O)OC1C(C)C(C(=O)O)N2C(=O)CC12` (stereo not shown) [H H H CH3 H OAc I, 1-Acetoxy-2-methylcarbapenam-3-carboxylic Acid], the MIC was greater than 200 µg/mL with Pseudomonas aeruginosa; greater than 200 µg/mL with Klebsiella pneumoniae; greater than 2000 µg/mL in [4]; greater than 200 µg/mL in test [5]; greater than 200 µg/mL in the test with Proteus morgani; greater than 200 µg/mL in the test with Staphylococcus aureus [6]. For the same compound, the MIC with Enterobacter cloacae, in the test with Escherichia coli [7], in the test on Serratia marcescens and in the test with Citrobacter diversus was greater than 200 µg/mL throughout. Moreover, the results for the zone of inhibition at 25 µg/disc (with Bacillus subtilis (setting [9]); in [3] (setting [11]); in the test with Staphylococcus aureus [2] (setting [10])) were 12 mm, 0 mm and 0 mm, respectively.
In the case of `CC1C(O)C2CC(=O)N2C1C(=O)OCOC(=O)C(C)(C)C` (stereo not shown) [H H POM CH3 H OH I, Pivaloyloxymethyl 1-Hydroxy-2-methylcarbapenam-3-carboxylate], the MIC (in the test on Pseudomonas aeruginosa; in the test with Klebsiella pneumoniae; in [4]; in test [5]; with Proteus morgani; in the test on Staphylococcus aureus [6]) was greater than 200 µg/mL throughout. Moreover, the MIC in the test on Enterobacter cloacae, in the test on Escherichia coli [7], in the test with Serratia marcescens and in the test with Citrobacter diversus was greater than 200 µg/mL in each case. The zone of inhibition at 25 µg/disc (with Bacillus subtilis (setting [9]); in test [3] (setting [11]); with Staphylococcus aureus [2] (setting [10])) was 0 mm in each case.
Take `CC(=O)OC1C(C)=C(C(=O)[O-])N2C(=O)C(C(C)O)C12.[Na+]` (stereo not drawn) [HET H H CH3 H OAc I, Sodium 6-alpha-(1-Hydroxyethyl)-1-acetoxy-2-methylcarbapen-2-em-3-carboxylate]: the “Minimum Inhibitory Concentration” value is greater than 200 µg/mL in the test on Pseudomonas aeruginosa; greater than 200 µg/mL in the test on Klebsiella pneumoniae; 100 µg/mL in [4]; greater than 200 µg/mL in test [5]; greater than 200 µg/mL with Proteus morgani; greater than 200 µg/mL with Enterobacter cloacae. The “Minimum Inhibitory Concentration” value in the test on Escherichia coli [7] and with Serratia marcescens was greater than 200 µg/mL throughout. Besides, the “Zone of Inhibition” value in the test with Micrococcus luteus (25 microgram discs) is on record as 13 mm; with Bacillus subtilis (25 microgram discs) it was 16 mm; in the test on Escherichia coli [1] (25 microgram discs), 0 mm; in the test with Staphylococcus aureus [2] (25 microgram discs) it was 0 mm.
For `CC1=C(C(=O)[O-])N2C(=O)C(C(C)O)C2C1O.[Na+]` (stereo not shown) [HET H H CH3 H OH I], the “Minimum Inhibitory Concentration” value was 200 µg/mL in the test on Pseudomonas aeruginosa; 50 µg/mL in the test on Klebsiella pneumoniae; 3.12 µg/mL in test [4]; 12.5 µg/mL in test [5]; 25 µg/mL in the test on Proteus morgani; 1.56 µg/mL with Staphylococcus aureus [6]. In addition, the “Minimum Inhibitory Concentration” value in the test on Enterobacter cloacae came out at 25 µg/mL; in the test with Escherichia coli [7], 6.25 µg/mL; with Serratia marcescens it was 50 µg/mL. For the same compound, the “Zone of Inhibition” value in the test on Micrococcus luteus (25 microgram discs) was 39 mm; in the test on Bacillus subtilis (25 microgram discs), 29 mm; in the test with Escherichia coli [1] (25 microgram discs), 23 mm; with Staphylococcus aureus [2] (25 microgram discs), 29 mm.
For `CC(=O)OC1C(C)C(C(=O)O)N2C(=O)C(NC(=O)COc3ccccc3)C12` (stereo not shown) [PMA H H CH3 H OAc I, 1-Acetoxy-2-methyl-6-(2-phenoxyacetamido)carbapenam-3-carboxylic Acid], the zone of inhibition at 25 µg/disc (in the test on Micrococcus luteus (setting [8]); with Bacillus subtilis (setting [9]); in the test on Escherichia coli [1] (25 microgram discs); in [3] (setting [11]); in the test with Staphylococcus aureus [2] (setting [10])) was 0 mm in each case.
Regarding `CC1C(=O)C2C(NC(=O)COc3ccccc3)C(=O)N2C1C(=O)OCOC(=O)C(C)(C)C` (stereo not shown) [PMA H POM CH3 O I, Pivaloyloxymethyl 2-Methyl-1-oxo-6-(2-phenoxyacetamido)carbapenam-3-carboxylate], the MIC (in the test on Pseudomonas aeruginosa; in the test on Klebsiella pneumoniae; in [4]; in test [5]; in the test with Proteus morgani; in the test on Enterobacter cloacae) was greater than 200 µg/mL each time. Also, the MIC in the test with Escherichia coli [7], in the test with Serratia marcescens and in the test on Citrobacter diversus was greater than 200 µg/mL each time. The zone of inhibition at 25 µg/disc was found to be 15 mm in the test with Micrococcus luteus (setting [8]), 21 mm in the test with Bacillus subtilis (setting [9]), 0 mm in the test with Escherichia coli [1] (25 microgram discs) and 12 mm in test [3] (setting [11]).
As for `CC1(C)S[C@@H]2[C@H](NC(=O)Cc3ccccc3)C(=O)N2[C@H]1C(=O)O` [Penicillin G, reference compound], the “Zone of Inhibition” value in the test on Vibrio percolans (setting [12]) was 32 mm; in the test on Micrococcus luteus (setting [12]) it was 45 mm; in the test with Bacillus subtilis (setting [12]) it was 33 mm; in the test with Escherichia coli [1] (setting [12]), 0 mm; in test [3] (positive control, 10 microgram discs, antibiotic resistant), 0 mm; in the test with Staphylococcus aureus [2] (setting [12]), 32 mm.
Regarding `CC1(C)S[C@@H]2[C@H](NC(=O)Cc3ccccc3)C(=O)N2[C@H]1C(=O)O` [Penicillin, reference compound], the zone of inhibition at 10 µg/disc with Vibrio percolans (Comamonas terrigena, positive control, 10 microgram discs) was determined as 33 mm; in the test on Micrococcus luteus (Micrococcus luteus), 45 mm; with Bacillus subtilis (Bacillus subtilis, positive control, 10 microgram discs), 32 mm; in test [3] (Staphylococcus aureus), 0 mm; with Staphylococcus aureus [2] (Staphylococcus aureus, positive control, 10 microgram discs) it was 31 mm. The “Zone of Inhibition” value in the test with Escherichia coli [1] (setting [12]) is 16 mm.
